Legend:
Assay in all cases: Kinase selectivity, DiscoverX scanMAX Kinase assay panel (% control)
Assay type in all cases: binding
[1] = target: T1, kinases of the scanMAX Kinase assay panel (Homo sapiens, UniProt P51957); conditions: NEK4; 1 uM
T1 construct: purchased DiscoverX Co. (contract measurement) scanMAX Kinase assay panel
How it was run: (§1)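 Compounds were tested at 1 uM (in DMSO) against each panel kinase. % control was calculated as (compound − positive control)/(negative control − positive control)×100, where the positive control gives 0% and DMSO gives 100%. Activity toward a kinase was called at % control <35%.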

[2] = target: T2, kinases of the scanMAX Kinase assay panel (Homo sapiens, UniProt Q15375); conditions: EPHA7; 1 uM
T2 construct: purchased DiscoverX Co. (contract measurement) scanMAX Kinase assay panel
T2 sequence (Q15375 28-998): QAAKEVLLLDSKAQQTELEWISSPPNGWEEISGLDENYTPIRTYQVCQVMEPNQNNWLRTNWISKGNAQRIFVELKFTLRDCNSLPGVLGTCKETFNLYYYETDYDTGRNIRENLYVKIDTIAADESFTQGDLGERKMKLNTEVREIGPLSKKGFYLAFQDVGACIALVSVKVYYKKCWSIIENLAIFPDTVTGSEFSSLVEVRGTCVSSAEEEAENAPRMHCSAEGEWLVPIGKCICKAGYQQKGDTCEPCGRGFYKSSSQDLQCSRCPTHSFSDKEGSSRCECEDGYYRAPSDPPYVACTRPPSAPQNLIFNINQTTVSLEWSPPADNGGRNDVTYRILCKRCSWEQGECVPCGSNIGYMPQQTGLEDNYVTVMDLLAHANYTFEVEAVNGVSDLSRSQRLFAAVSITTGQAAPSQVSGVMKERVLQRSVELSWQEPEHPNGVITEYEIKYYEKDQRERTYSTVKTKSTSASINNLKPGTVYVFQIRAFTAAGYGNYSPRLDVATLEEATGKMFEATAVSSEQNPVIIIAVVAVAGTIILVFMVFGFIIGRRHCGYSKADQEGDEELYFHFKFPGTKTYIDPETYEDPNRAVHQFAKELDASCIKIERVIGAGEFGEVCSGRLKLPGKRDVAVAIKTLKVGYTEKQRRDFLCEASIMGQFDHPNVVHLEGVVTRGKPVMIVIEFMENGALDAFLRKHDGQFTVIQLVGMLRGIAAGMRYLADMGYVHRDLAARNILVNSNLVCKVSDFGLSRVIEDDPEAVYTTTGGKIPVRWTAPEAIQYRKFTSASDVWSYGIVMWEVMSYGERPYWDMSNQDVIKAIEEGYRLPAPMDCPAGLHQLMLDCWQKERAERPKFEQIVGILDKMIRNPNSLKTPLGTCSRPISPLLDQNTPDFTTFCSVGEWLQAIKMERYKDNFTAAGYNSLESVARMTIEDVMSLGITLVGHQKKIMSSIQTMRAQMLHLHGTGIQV
How it was run: as §1

[3] = target: T3, kinases of the scanMAX Kinase assay panel (Homo sapiens, UniProt Q9Y616); conditions: IRAK3; 1 uM
T3 construct: purchased DiscoverX Co. (contract measurement) scanMAX Kinase assay panel
T3 sequence (Q9Y616 1-596): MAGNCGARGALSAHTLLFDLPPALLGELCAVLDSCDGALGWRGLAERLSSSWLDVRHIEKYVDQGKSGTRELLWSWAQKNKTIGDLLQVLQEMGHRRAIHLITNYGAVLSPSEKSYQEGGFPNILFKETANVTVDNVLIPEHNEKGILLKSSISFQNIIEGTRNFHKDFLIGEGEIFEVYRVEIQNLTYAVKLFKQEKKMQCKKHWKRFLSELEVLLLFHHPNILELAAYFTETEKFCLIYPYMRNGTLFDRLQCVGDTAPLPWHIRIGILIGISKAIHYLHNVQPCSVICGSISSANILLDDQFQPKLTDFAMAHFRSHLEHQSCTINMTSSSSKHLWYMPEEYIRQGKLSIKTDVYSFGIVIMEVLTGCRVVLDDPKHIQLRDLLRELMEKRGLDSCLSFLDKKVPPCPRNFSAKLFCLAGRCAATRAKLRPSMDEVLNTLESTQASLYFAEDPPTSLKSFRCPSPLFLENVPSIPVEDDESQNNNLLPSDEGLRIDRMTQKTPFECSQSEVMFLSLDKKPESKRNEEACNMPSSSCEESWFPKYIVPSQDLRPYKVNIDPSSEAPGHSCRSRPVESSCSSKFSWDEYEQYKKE
How it was run: as §1

[4] = target: T4, kinases of the scanMAX Kinase assay panel (Homo sapiens, UniProt O00329); conditions: PIK3CD; 1 uM
T4 construct: purchased DiscoverX Co. (contract measurement) scanMAX Kinase assay panel
T4 sequence (O00329 1-1044): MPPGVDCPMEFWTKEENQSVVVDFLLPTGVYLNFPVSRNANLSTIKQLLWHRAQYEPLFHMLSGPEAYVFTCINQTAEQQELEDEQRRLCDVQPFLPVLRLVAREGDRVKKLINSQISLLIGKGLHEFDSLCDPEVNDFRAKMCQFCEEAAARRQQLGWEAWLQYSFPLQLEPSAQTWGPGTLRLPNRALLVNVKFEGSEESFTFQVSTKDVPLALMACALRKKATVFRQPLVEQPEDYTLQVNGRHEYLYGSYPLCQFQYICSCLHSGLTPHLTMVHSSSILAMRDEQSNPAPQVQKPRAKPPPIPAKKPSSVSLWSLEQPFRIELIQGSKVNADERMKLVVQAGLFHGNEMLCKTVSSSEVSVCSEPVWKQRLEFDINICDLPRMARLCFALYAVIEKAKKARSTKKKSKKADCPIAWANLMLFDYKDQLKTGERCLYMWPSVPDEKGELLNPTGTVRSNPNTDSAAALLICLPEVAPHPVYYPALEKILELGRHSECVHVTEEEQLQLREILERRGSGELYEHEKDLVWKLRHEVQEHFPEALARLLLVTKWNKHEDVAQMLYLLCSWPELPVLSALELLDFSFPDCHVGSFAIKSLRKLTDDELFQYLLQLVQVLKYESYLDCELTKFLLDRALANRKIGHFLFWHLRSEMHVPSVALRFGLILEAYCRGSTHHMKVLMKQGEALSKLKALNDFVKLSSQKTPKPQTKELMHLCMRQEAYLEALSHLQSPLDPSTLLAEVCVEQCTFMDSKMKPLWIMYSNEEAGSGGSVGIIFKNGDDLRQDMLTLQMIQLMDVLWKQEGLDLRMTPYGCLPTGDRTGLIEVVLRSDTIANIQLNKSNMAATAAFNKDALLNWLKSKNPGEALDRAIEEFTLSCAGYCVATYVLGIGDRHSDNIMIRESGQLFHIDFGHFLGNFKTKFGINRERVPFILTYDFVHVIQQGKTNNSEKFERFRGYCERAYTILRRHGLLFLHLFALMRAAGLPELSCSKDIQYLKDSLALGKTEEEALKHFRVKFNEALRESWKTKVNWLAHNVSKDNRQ
How it was run: as §1

[5] = target: T5, kinases of the scanMAX Kinase assay panel (Homo sapiens, UniProt P37023); conditions: ACVRL1; 1 uM
T5 construct: purchased DiscoverX Co. (contract measurement) scanMAX Kinase assay panel
T5 sequence (P37023 22-503): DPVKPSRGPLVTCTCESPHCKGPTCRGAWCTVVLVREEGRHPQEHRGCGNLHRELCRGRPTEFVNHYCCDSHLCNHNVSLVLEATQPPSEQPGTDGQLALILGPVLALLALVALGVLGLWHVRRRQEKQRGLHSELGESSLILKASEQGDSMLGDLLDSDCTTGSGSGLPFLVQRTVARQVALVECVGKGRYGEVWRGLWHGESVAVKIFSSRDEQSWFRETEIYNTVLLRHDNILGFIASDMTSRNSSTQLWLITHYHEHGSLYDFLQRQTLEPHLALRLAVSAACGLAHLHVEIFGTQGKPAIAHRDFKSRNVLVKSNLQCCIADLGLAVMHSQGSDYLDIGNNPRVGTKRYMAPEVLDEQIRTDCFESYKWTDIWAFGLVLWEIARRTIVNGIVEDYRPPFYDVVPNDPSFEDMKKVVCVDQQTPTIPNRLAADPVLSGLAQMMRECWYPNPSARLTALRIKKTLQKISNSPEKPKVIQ
How it was run: as §1

T1 sequence (P51957 whole entry): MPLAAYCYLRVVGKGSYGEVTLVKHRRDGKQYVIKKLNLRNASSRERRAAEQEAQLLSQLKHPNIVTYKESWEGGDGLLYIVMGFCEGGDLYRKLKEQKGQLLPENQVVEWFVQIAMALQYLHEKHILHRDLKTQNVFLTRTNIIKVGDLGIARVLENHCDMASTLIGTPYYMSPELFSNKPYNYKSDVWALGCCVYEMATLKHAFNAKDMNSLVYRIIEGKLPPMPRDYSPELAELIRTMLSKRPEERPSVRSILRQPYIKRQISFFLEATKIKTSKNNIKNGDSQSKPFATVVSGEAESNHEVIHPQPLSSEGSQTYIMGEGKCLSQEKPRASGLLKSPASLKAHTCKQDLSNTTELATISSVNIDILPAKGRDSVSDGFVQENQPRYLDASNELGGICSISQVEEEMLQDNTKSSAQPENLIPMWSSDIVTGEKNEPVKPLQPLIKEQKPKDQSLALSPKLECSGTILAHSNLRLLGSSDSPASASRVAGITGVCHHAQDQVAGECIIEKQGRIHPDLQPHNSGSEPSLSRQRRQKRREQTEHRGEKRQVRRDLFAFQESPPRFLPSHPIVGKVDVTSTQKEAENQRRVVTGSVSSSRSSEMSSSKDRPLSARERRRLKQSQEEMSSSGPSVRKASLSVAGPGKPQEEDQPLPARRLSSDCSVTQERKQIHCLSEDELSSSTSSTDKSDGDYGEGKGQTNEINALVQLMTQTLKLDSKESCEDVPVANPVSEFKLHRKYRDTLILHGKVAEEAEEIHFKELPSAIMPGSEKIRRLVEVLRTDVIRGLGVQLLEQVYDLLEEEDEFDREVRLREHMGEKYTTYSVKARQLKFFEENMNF

Structure (SMILES)	remaining binding at 1 µM [1]	remaining binding at 1 µM [2]	remaining binding at 1 µM [3]	remaining binding at 1 µM [4]	remaining binding at 1 µM [5]
CC1(Nc2nc(Nc3cnn([C@H]4CCN(C5COC5)C[C@@H]4F)c3Cl)nc3[nH]cc(C#N)c23)CC1 [Example 52, 2-((5-chloro-1-((3S,4S)-3-fluoro-1-(oxetane-3-yl)piperidine-4-yl)-1H-pyrazole-4-yl)amino)((1-methylcyclopropyl)amino)-7H-pyrrolo[2,3-d]pyrimidine-5-carbonitrile]	100%	20%	3.9%	9.4%	100%
CNc1nc(Nc2ccc(C(=O)N3CCOCC3)cc2OC)nc2[nH]cc(C#N)c12 [Example 1, 2-((2-methoxy-4-(morpholine-4-carbonyl)phenyl)amino)-4-(methylamino)-7H-pyrrolo[2,3-d]pyrimidine-5-carbonitrile]	75%	97%	90%	99%	88%
CCNc1nc(Nc2ccc(C(=O)N3CCC(N4CCOCC4)CC3)cc2OC)nc2[nH]cc(C(F)(F)F)c12 [Example 104, (4-((4-(ethylamino)-5-(trifluoromethyl)-7H-pyrrolo[2,3-d]pyrimidine-2-yl)amino)-3-methoxyphenyl)(4-morpholinopiperidine-1-yl)methanone]	100%	94%	26%	78%	97%
